Test results from patent US9255100B2 (BAYER INTELLECTUAL PROPERTY GMBH, priority 2010, dated 2016).

What follows are molecules tested against T1, N-terminally GST-tagged human full length recombinant Mps-1 kinase (Homo sapiens, UniProt P33981) (assay: Mps-1 kinase assay (TR-FRET)). Details: Mps1 IC50 [nM], 10 μM ATP, 1 μM peptide substrate, 60 min at 22° C.
T1 construct: N-terminally GST-tagged human full length recombinant Mps-1 kinase; purchased Invitrogen, Karslruhe, Germany PV4071
T1 sequence (P33981 1-857): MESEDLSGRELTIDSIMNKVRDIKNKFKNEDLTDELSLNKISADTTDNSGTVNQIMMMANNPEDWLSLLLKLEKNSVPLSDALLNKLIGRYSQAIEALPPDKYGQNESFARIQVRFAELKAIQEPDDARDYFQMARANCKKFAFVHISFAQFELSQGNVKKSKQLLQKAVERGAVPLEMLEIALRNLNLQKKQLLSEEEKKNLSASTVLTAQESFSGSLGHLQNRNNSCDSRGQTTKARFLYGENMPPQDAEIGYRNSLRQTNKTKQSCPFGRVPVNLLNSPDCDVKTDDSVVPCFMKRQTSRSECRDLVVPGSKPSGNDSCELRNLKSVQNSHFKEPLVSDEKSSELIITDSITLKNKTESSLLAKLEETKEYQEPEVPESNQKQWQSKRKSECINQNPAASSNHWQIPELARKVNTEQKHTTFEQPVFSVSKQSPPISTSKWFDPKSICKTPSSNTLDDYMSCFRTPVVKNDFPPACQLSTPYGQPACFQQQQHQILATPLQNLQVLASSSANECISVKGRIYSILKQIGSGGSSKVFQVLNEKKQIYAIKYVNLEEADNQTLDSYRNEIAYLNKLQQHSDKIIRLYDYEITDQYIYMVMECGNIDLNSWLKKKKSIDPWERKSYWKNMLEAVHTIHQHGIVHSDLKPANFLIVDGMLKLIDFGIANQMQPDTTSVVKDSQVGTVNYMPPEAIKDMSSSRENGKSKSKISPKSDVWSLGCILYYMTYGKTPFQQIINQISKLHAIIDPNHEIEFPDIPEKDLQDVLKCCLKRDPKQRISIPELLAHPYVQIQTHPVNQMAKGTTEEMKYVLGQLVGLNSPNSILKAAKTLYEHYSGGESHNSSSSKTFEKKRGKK
Assay type: biochemical
Method in brief: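 Kinase activity of N-terminally GST-tagged full-length recombinant Mps-1, used at about 1 nM final and set within the linear range, was measured on a biotinylated peptide substrate. Phosphopeptide was detected by TR-FRET from Eu-anti-phospho(Ser/Thr) antibody to streptavidin-XLent after 1 h at 22° C.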

Row | SMILES | IC50 [nM]
1 | Cc1cc(-c2cnc3c(NCC(C)(C)O)cc(Sc4cccs4)nn23)ccc1C(=O)NC1CC1 [Example 261, N-cyclopropyl-4-{8-[(2-hydroxy-2-methylpropyl)amino]-6-(2-thienylsulfanyl)imidazo[1,2-b]pyridazin-3-yl}-2-methylbenzamide] | 0.5
2 | Cc1cc(-c2cnc3c(NCC(C)(C)O)cc(Oc4cc(F)cc(F)c4)nn23)ccc1C(=O)NC1CC1 [Example 262, N-cyclopropyl-4-{6-(3,5-difluorophenoxy)-8-[(2-hydroxy-2-methylpropyl)amino]imidazo[1,2-b]pyridazin-3-yl}-2-methylbenzamide] | 0.2
3 | Cc1cc(-c2cnc3c(NCC(C)(C)O)cc(O[C@H]4CCNC4=O)nn23)ccc1C(=O)NC1CC1 [Example 263, N-cyclopropyl-4-(8-[(2-hydroxy-2-methylpropyl)amino]-6-{[(3S)-2-oxopyrrolidin-3-yl]oxy}imidazo[1,2-b]pyridazin-3-yl)-2-methylbenzamide] | 32.4
4 | Cc1ccc(Oc2cc(NCC(C)(C)O)c3ncc(-c4ccc(C(=O)NC5CC5)c(C)c4)n3n2)cn1 [Example 264, N-cyclopropyl-4-{8-[(2-hydroxy-2-methylpropyl)amino]-6-[(6-methylpyridin-3-yl)oxy]imidazo[1,2-b]pyridazin-3-yl}-2-methylbenzamide] | 2
5 | Cc1cc(-c2cnc3c(NCC(C)(C)O)cc(Oc4cncnc4)nn23)ccc1C(=O)NC1CC1 [Example 265, N-cyclopropyl-4-{8-[(2-hydroxy-2-methylpropyl)amino]-6-(pyrimidin-5-yloxy)imidazo[1,2-b]pyridazin-3-yl}-2-methylbenzamide] | 0.9
6 | Cc1cc(-c2cnc3c(NCCC(F)(F)F)cc(Oc4cccc(Cl)c4)nn23)ccc1C(=O)NC1CC1 [Example 266, 4-{6-(3-chlorophenoxy)-8-[(3,3,3-trifluoropropyl)amino]imidazo[1,2-b]pyridazin-3-yl}-N-cyclopropyl-2-methylbenzamide] | 0.3
7 | Cc1cc(-c2cnc3c(NCCC(F)(F)F)cc(Oc4ccc(Cl)cc4)nn23)ccc1C(=O)NC1CC1 [Example 267, 4-{6-(4-chlorophenoxy)-8-[(3,3,3-trifluoropropyl)amino]imidazo[1,2-b]pyridazin-3-yl}-N-cyclopropyl-2-methylbenzamide] | 0.3
8 | Cc1cc(-c2cnc3c(NCCC(F)(F)F)cc(Sc4ccccc4F)nn23)ccc1C(=O)NC1CC1 [Example 268, N-cyclopropyl-4-{6-[(2-fluorophenyl)sulfanyl]-8-[(3,3,3-trifluoropropyl)amino]imidazo[1,2-b]pyridazin-3-yl}-2-methylbenzamide] | 0.2
9 | Cc1ccc(F)cc1Sc1cc(NCCC(F)(F)F)c2ncc(-c3ccc(C(=O)NC4CC4)c(C)c3)n2n1 [Example 269, N-cyclopropyl-4-{6-[(5-fluoro-2-methylphenyl)sulfanyl]-8-[(3,3,3-trifluoropropyl)amino]imidazo[1,2-b]pyridazin-3-yl}-2-methylbenzamide] | 0.3
10 | Cc1cc(-c2cnc3c(NCCC(F)(F)F)cc(Sc4ccccc4CO)nn23)ccc1C(=O)NC1CC1 [Example 270, N-cyclopropyl-4-(6-{[2-(hydroxymethyl)phenyl]sulfanyl}-8-[(3,3,3-trifluoropropyl)amino]imidazo[1,2-b]pyridazin-3-yl)-2-methylbenzamide] | 0.1
11 | Cc1cc(-c2cnc3c(NCC(C)(C)O)cc(Sc4cccc(OC(C)C)c4)nn23)ccc1C(=O)NC1CC1 [Example 271] | 1
12 | Cc1cc(-c2cnc3c(NCC(C)(C)O)cc(Sc4cccc(C(C)C)c4)nn23)ccc1C(=O)NC1CC1 [Example 273, N-cyclopropyl-4-{8-[(2-hydroxy-2-methylpropyl)amino]-6-[(3-isopropylphenyl)sulfanyl]imidazo[1,2-b]pyridazin-3-yl}-2-methylbenzamide] | 0.5
13 | Cc1cc(-c2cnc3c(NCC(C)(C)O)cc(Oc4ccccn4)nn23)ccc1C(=O)NC1CC1 [Example 274, N-cyclopropyl-4-{8-[(2-hydroxy-2-methylpropyl)amino]-6-(pyridin-2-yloxy)imidazo[1,2-b]pyridazin-3-yl}-2-methylbenzamide] | 73.8
14 | Cc1cc(-c2cnc3c(NCCC(F)(F)F)cc(OCC(F)(F)C(F)(F)CO)nn23)ccc1C(=O)NC1CC1 [Example 278A, N-cyclopropyl-2-methyl-4-{6-(2,2,3,3-tetrafluoro-4-hydroxybutoxy)-8-[(3,3,3-trifluoropropyl)amino]imidazo[1,2-b]pyridazin-3-yl}benzamide] | 0.4

Continued, values first:

Row | IC50 [nM] | SMILES
15 | 5.4 | Cc1cc(-c2cnc3c(NCC(C)(C)O)cc(Oc4cccc(OCC(C)(C)O)c4)nn23)ccc1C(=O)NC1CC1 [Example 275, N-cyclopropyl-4-{6-[3-(2-hydroxy-2-methylpropoxy)phenoxy]-8-[(2-hydroxy-2-methylpropyl)amino]imidazo[1,2-b]pyridazin-3-yl}-2-methylbenzamide]
16 | 0.1 | Cc1cc(-c2cnc3c(NCCO)cc(Sc4cccc(F)c4)nn23)ccc1C(=O)NC1CC1 [Example 276, N-cyclopropyl-4-{6-[(3-fluorophenyl)sulfanyl]-8-[(2-hydroxyethyl)amino]imidazo[1,2-b]pyridazin-3-yl}-2-methylbenzamide]
17 | < 0.1 | Cc1cc(-c2cnc3c(NCCO)cc(Oc4cccc(F)c4)nn23)ccc1C(=O)NC1CC1 [Example 277, N-cyclopropyl-4-{6-(3-fluorophenoxy)-8-[(2-hydroxyethyl)amino]imidazo[1,2-b]pyridazin-3-yl}-2-methylbenzamide]
18 | 1 | Cc1cc(-c2cnc3c(NCCC(F)(F)F)cc(O/C=C(/F)C(F)(F)CO)nn23)ccc1C(=O)NC1CC1 [Example 278B, N-cyclopropyl-2-methyl-4-(6-{[(1E)-2,3,3-trifluoro-4-hydroxybut-1-en-1-yl]oxy}-8-[(3,3,3-trifluoropropyl)amino]imidazo[1,2-b]pyridazin-3-yl)benzamide]
19 | 148 | COC(=O)c1cc(F)ccc1-c1cc(NCC(C)(C)O)c2ncc(-c3ccc(C(=O)NC4CC4)c(C)c3)n2n1 [Example 279, 2-{3-[4-(cyclopropylcarbamoyl)-3-methylphenyl]-8-[(2-hydroxy-2-methylpropyl)amino]imidazo[1,2-b]pyridazin-6-yl}-5-fluoro-benzoic acid methyl ester]
20 | 0.1 | Cc1cc(-c2cnc3c(NCCC(F)(F)F)cc(Oc4ccccc4O)nn23)ccc1C(=O)NC1CC1 [Example 280, N-cyclopropyl-4-{6-(2-hydroxyphenoxy)-8-[(3,3,3-trifluoropropyl)amino]imidazo[1,2-b]pyridazin-3-yl}-2-methylbenzamide]
21 | 0.3 | Cc1cc(-c2cnc3c(NCC4CCSCC4)cc(Oc4cccc(F)c4)nn23)ccc1C(=O)NC1CC1 [Example 281, N-cyclopropyl-4-{6-(3-fluorophenoxy)-8-[(tetrahydro-2H-thiopyran-4-ylmethyl)amino]imidazo[1,2-b]pyridazin-3-yl}-2-methylbenzamide]
22 | 0.4 | Cc1cc(F)cc(Oc2cc(NCC3CCSCC3)c3ncc(-c4ccc(C(=O)NC5CC5)c(C)c4)n3n2)c1 [Example 282, N-cyclopropyl-4-{6-(3-fluoro-5-methylphenoxy)-8-[(tetrahydro-2H-thiopyran-4-ylmethyl)amino]imidazo[1,2-b]pyridazin-3-yl}-2-methylbenzamide]
23 | 0.3 | Cc1cc(-c2cnc3c(NCC4CCSCC4)cc(Oc4ccccc4F)nn23)ccc1C(=O)NC1CC1 [Example 283, N-cyclopropyl-4-{6-(2-fluorophenoxy)-8-[(tetrahydro-2H-thiopyran-4-ylmethyl)amino]imidazo[1,2-b]pyridazin-3-yl}-2-methylbenzamide]
24 | 0.4 | Cc1cc(-c2cnc3c(NCC4CCSCC4)cc(Sc4ccccc4)nn23)ccc1C(=O)NC1CC1 [Example 284, N-cyclopropyl-2-methyl-4-{6-(phenylsulfanyl)-8-[(tetrahydro-2H-thiopyran-4-ylmethyl)amino]imidazo[1,2-b]pyridazin-3-yl}benzamide]
25 | 0.4 | Cc1cc(-c2cnc3c(NCC4CCSCC4)cc(Sc4cccc(F)c4)nn23)ccc1C(=O)NC1CC1 [Example 285, N-cyclopropyl-4-{6-[(3-fluorophenyl)sulfanyl]-8-[(tetrahydro-2H-thiopyran-4-ylmethyl)amino]imidazo[1,2-b]pyridazin-3-yl}-2-methylbenzamide]
26 | 0.4 | Cc1cc(F)cc(Sc2cc(NCC3CCSCC3)c3ncc(-c4ccc(C(=O)NC5CC5)c(C)c4)n3n2)c1 [Example 286, N-cyclopropyl-4-{6-[(3-fluoro-5-methylphenyl)sulfanyl]-8-[(tetrahydro-2H-thiopyran-4-ylmethyl)amino]imidazo[1,2-b]pyridazin-3-yl}-2-methylbenzamide]
